Measured values taken from US8846710B2, “Method of preferentially inducing the biosynthesis of interferon” (3M Innovative Properties Company, priority 2005, dated 2014).

What was measured:
[1] = test system: interferon (α) (IFN-α); experiment: Cytokine induction in human cells: IFN-α secreted by PBMC into culture media (ELISA); format: cell-based; conditions: human PBMC, median where tested in more than one experiment
In short: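 IFN-α secreted by density-gradient-isolated PBMC (final 2×10^6 cells/mL) was quantified by ELISA after 18–24 h compound exposure at 37 °C, typically 30-0.014 μM in 3-fold steps with ≤1% DMSO. Readings corrected for background and reference-compound variability; lowest concentration above usually 20 pg/mL reported, plus maximal response (pg/mL).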

[2] = test system: tumor necrosis factor (α) (TNF-α); experiment: Cytokine induction in human cells: TNF-α secreted by PBMC into culture media (ORIGEN M-Series immunoassay); format: cell-based; set-up: key to Maximal Response (pg/mL) TNF / Maximal Response TNF: If any negative values result from background subtraction, the reading is reported as “*”, and is noted as not reliably detectable; conditions: human PBMC, median
In short: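 Secreted TNF-α (pg/mL) was quantified by ORIGEN M-Series immunoassay after 18 to 24 hours culture at 37° C of human PBMC (2×10^6 cells/mL final) with test compound (usually 30-0.014 μM, 3-fold series, DMSO ≤1%). Values were corrected for DMSO or experimental background and a reference-compound ratio, giving a minimum effective concentration.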

[3] = Table 12, * = below the experimental background of 40 pg/mL

Structure (SMILES)	melting point [°C]	Maximal Response IFN ([1]; Table 12) [pg/mL]	Maximal Response TNF [2, 3] [pg/mL]	further results
CC(C)(O)Cn1c(CO)nc2c(N)nc3cc(OCc4cscn4)ccc3c21 [Example 187, 1-[4-Amino-2-hydroxymethyl-7-(thiazol-4-ylmethoxy)-1H-imidazo[4,5-c]quinolin-1-yl]-2-methylpropan-2-ol]	260 to 262	–	–	–
CS(=O)(=O)NCCCCn1c(CO)nc2c(N)nc3ccccc3c21 [Example 368, N-[4-(4-amino-2-hydroxymethyl-1H-imidazo[4,5-c]quinolin-1-yl)butyl]methanesulfonamide]	–	–	–	Maximal Response IFN ([1]; Table 11): 7220 pg/mL; Maximal Response TNF ([2]; Table 11, * = TNF below experimental background of 40 pg/mL): *
CC(C)(F)Cn1c(CO)nc2c(N)nc3cccnc3c21 [Example 551, [4-Amino-1-(2-fluoro-2-methylpropyl)-1H-imidazo[4,5-c][1,5]naphthyridin-2-yl]methanol]	–	1833	1922	–
CC(C)(F)Cn1c(CCO)nc2c(N)nc3cccnc3c21 [Example 552, 2-[4-Amino-1-(2-fluoro-2-methylpropyl)-1H-imidazo[4,5-c][1,5]naphthyridin-2-yl]ethanol]	–	1646	84	–
CC(C)Cn1c(CO)nc2c(N)nc3cccnc3c21 [Example 633, [4-Amino-1-(2-methylpropyl)-1H-imidazo[4,5-c][1,5]naphthyridin-2-yl]methanol]	–	1592	363	–
CC(=O)OCCc1nc2c(N)nc3ccccc3c2n1CC(C)C [Example 634, 2-(4-Amino-1-isobutyl-1H-imidazo[4,5-c]quinolin-2-yl)ethyl acetate]	187 to 189	–	–	–
CC(=O)OCc1nc2c(N)nc3ccccc3c2n1CC(C)(C)O [Example 635, [4-Amino-1-(2-hydroxy-2-methylpropyl)-1H-imidazo[4,5-c]quinolin-2-yl]methyl acetate]	203 to 205	–	–	–
CC(C)[C@H](N)C(=O)OCc1nc2c(N)nc3ccccc3c2n1CC(C)(C)O [Example 636, [4-Amino-1-(2-hydroxy-2-methylpropyl)-1H-imidazo[4,5-c]quinolin-2-yl]methyl L-valinate]	190 to 192	–	–	–
